Legend:
barnyard grass [1] = test: Test Example 3: herbicidal effect by foliage application, Wagner pot (Table 18, symbol H); type: in vivo, barnyard grass (Echinochloa crus-galli)
Summary of the method: (§1)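 Plants were sown in alluvial soil held under 0.1–0.5 cm standing water and grown 14 days in a greenhouse at 25–30 °C. An emulsifiable formulation, water-diluted to the set dose, was then sprayed onto the foliage, and effects were scored three weeks later using previously defined criteria.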

Chinese sprangletop = test: Test Example 3: herbicidal effect by foliage application, Wagner pot (Table 18, symbol D); type: in vivo, chinese sprangletop (Leptochloa chinensis)
Summary of the method: as §1

rice flat sedge = test: Test Example 3: herbicidal effect by foliage application, Wagner pot (Table 18, symbol E); type: in vivo, rice flat sedge (Cyperus iria)
Summary of the method: as §1

southern crabgrass = test: Test Example 4: herbicidal effect by soil treatment (Table 19, symbol F); type: in vivo, southern crabgrass (Digitaria ciliaris)
Summary of the method: (§2)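 Emulsion of test compound, water-diluted to predetermined amount, sprayed on soil after sowing (seed depth ~1.5 cm, sterilized diluvial soil). Greenhouse, 25–30° C. Effect graded at three weeks post-spray.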

green foxtail = test: Test Example 4: herbicidal effect by soil treatment (Table 19, symbol G); type: in vivo, green foxtail (Setaria viridis)
Summary of the method: as §2

barnyard grass [2] = test: Test Example 4: herbicidal effect by soil treatment (Table 19, symbol H); type: in vivo, barnyard grass (Echinochloa crus-galli)
Summary of the method: as §2

wild oat = test: Test Example 4: herbicidal effect by soil treatment (Table 19, symbol I); type: in vivo, wild oat (Avena fatua)
Summary of the method: as §2

blackgrass = test: Test Example 4: herbicidal effect by soil treatment (Table 19, symbol J); type: in vivo, blackgrass (Alopecurus myosuroides)
Summary of the method: as §2

Italian ryegrass = test: Test Example 4: herbicidal effect by soil treatment (Table 19, symbol K); type: in vivo, Italian ryegrass (Lolium multiflorum)
Summary of the method: as §2

windgrass = test: Test Example 4: herbicidal effect by soil treatment (Table 19, symbol L); type: in vivo, windgrass (Apera spica-venti)
Summary of the method: as §2

velvetleaf = test: Test Example 4: herbicidal effect by soil treatment (Table 19, symbol M); type: in vivo, velvetleaf (Abutilon theophrasti)
Summary of the method: as §2

redroot pigweed = test: Test Example 4: herbicidal effect by soil treatment (Table 19, symbol N); type: in vivo, redroot pigweed (Amaranthus retroflexus)
Summary of the method: as §2

lambsquarters = test: Test Example 4: herbicidal effect by soil treatment (Table 19, symbol O); type: in vivo, lambsquarters (Chenopodium album)
Summary of the method: as §2

chickweed = test: Test Example 4: herbicidal effect by soil treatment (Table 19, symbol P); type: in vivo, common chickweed (Stellaria media)
Summary of the method: as §2

persian speedwell = test: Test Example 4: herbicidal effect by soil treatment (Table 19, symbol R); type: in vivo, Persian speedwell (Veronica persica)
Summary of the method: as §2

[3] = amount of applied herbicide 84 g/ha
[4] = amount of applied herbicide 320 g/ha

Row | SMILES | herbicidal effect on H: barnyard grass (barnyard grass [1]; [4]) | herbicidal effect on D: Chinese sprangletop (Chinese sprangletop; [4]) | herbicidal effect on E: rice flat sedge (rice flat sedge; [4]) | herbicidal effect, F: southern crabgrass (southern crabgrass; [4]) | herbicidal effect, G: green foxtail (green foxtail; [4]) | herbicidal effect, H: barnyard grass (barnyard grass [2]; [4]) | herbicidal effect, I: wild oat (wild oat; [4]) | herbicidal effect, J: blackgrass (blackgrass; [4]) | herbicidal effect, K: Italian ryegrass (Italian ryegrass; [4]) | herbicidal effect, L: windgrass (windgrass; [4]) | herbicidal effect, M: velvetleaf (velvetleaf; [4]) | herbicidal effect, N: redroot pigweed (redroot pigweed; [4]) | herbicidal effect, O: lambsquarters (lambsquarters; [4]) | herbicidal effect, P: chickweed (chickweed; [4]) | herbicidal effect, R: persian speedwell (persian speedwell; [4]) | other results
1 | Cc1nn(C)c(=O)c(-c2c(-c3c(F)cc(F)cc3F)sc3ccc(F)cc23)c1O [2-372] |  |  |  |  |  |  |  |  |  |  |  |  |  |  |  | herbicidal effect on H: barnyard grass (barnyard grass [1]; [3]): 4 (Herbicidal rate of 70% or more and less than 90%); herbicidal effect on D: Chinese sprangletop (Chinese sprangletop; [3]): 4 (Herbicidal rate of 70% or more and less than 90%); herbicidal effect on E: rice flat sedge (rice flat sedge; [3]): 3 (Herbicidal rate of 40% or more and less than 70%); herbicidal effect, F: southern crabgrass (southern crabgrass; [3]): 0 (Herbicidal rate of 5% or less (almost no effect)); herbicidal effect, G: green foxtail (green foxtail; [3]): 0 (Herbicidal rate of 5% or less (almost no effect)); herbicidal effect, H: barnyard grass (barnyard grass [2]; [3]): 0 (Herbicidal rate of 5% or less (almost no effect)); herbicidal effect, I: wild oat (wild oat; [3]): 0 (Herbicidal rate of 5% or less (almost no effect)); herbicidal effect, J: blackgrass (blackgrass; [3]): 0 (Herbicidal rate of 5% or less (almost no effect)); herbicidal effect, K: Italian ryegrass (Italian ryegrass; [3]): 2 (Herbicidal rate of 20% or more and less than 40%); herbicidal effect, L: windgrass (windgrass; [3]): 0 (Herbicidal rate of 5% or less (almost no effect)); herbicidal effect, M: velvetleaf (velvetleaf; [3]): 0 (Herbicidal rate of 5% or less (almost no effect)); herbicidal effect, N: redroot pigweed (redroot pigweed; [3]): 0 (Herbicidal rate of 5% or less (almost no effect)); herbicidal effect, O: lambsquarters (lambsquarters; [3]): 0 (Herbicidal rate of 5% or less (almost no effect)); herbicidal effect, P: chickweed (chickweed; [3]): 0 (Herbicidal rate of 5% or less (almost no effect)); herbicidal effect, R: persian speedwell (persian speedwell; [3]): 0 (Herbicidal rate of 5% or less (almost no effect))
2 | CCCC(=O)Oc1c(C)nn(C)c(=O)c1-c1c(-c2cnccc2F)sc2ccc(F)cc12 [2-384] | 3 (Herbicidal rate of 40% or more and less than 70%) | 3 (Herbicidal rate of 40% or more and less than 70%) | 3 (Herbicidal rate of 40% or more and less than 70%) | 3 (Herbicidal rate of 40% or more and less than 70%) | 4 (Herbicidal rate of 70% or more and less than 90%) | 3 (Herbicidal rate of 40% or more and less than 70%) | 1 (Herbicidal rate of 5% or more and less than 20%) | 0 (Herbicidal rate of 5% or less (almost no effect)) | 4 (Herbicidal rate of 70% or more and less than 90%) | 0 (Herbicidal rate of 5% or less (almost no effect)) | 2 (Herbicidal rate of 20% or more and less than 40%) | 4 (Herbicidal rate of 70% or more and less than 90%) | 3 (Herbicidal rate of 40% or more and less than 70%) | 4 (Herbicidal rate of 70% or more and less than 90%) | 4 (Herbicidal rate of 70% or more and less than 90%) | 
3 | Cc1nn(C)c(=O)c(-c2c(-c3cnccc3Cl)sc3ccc(F)cc23)c1O [2-385] | 5 (Herbicidal rate of 90% or more (almost completely withered)) | 5 (Herbicidal rate of 90% or more (almost completely withered)) | 5 (Herbicidal rate of 90% or more (almost completely withered)) | 0 (Herbicidal rate of 5% or less (almost no effect)) | 0 (Herbicidal rate of 5% or less (almost no effect)) | 0 (Herbicidal rate of 5% or less (almost no effect)) | 3 (Herbicidal rate of 40% or more and less than 70%) | 0 (Herbicidal rate of 5% or less (almost no effect)) | 4 (Herbicidal rate of 70% or more and less than 90%) | 1 (Herbicidal rate of 5% or more and less than 20%) | 2 (Herbicidal rate of 20% or more and less than 40%) | 3 (Herbicidal rate of 40% or more and less than 70%) | 4 (Herbicidal rate of 70% or more and less than 90%) | 3 (Herbicidal rate of 40% or more and less than 70%) | 5 (Herbicidal rate of 90% or more (almost completely withered)) | 

Source: patent US20230085307A1, “PYRIDAZINONE COMPOUND AND HERBICIDE” (NISSAN CHEMICAL CORPORATION, priority 2019, published 2023)
